According to PubChem BioAssay AID1963842 (Molecular Pharmacology Branch, DTP, NCI, 2024):

Tested on: 677734-321-R-J1-PDC complex spheroid viability
Assay: Anticancer human tumor 677734-321-R-J1-PDC patient-derived soft tissue sarcoma cell line growth inhibition [POLQ]
Conditions: for IC50: curve of first compound; for viability, T/C: stronger effect = lower value
Method in brief: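 Complex spheroid viability model combining PDC tumour cells with endothelial (HUVEC) and MSC stromal cells. Novobiocin, ART-558 or RP6685 were tested singly and in combination with standard and investigational anticancer drugs. Each was titrated in half-log steps from near clinical Cmax, or from 10 microM where Cmax was unknown.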

[1] = second compound 0.0316 µM, first compound 0.0316 µM
[2] = second compound 0.0316 µM, first compound 0.1 µM
[3] = second compound 0.0316 µM, first compound 0.316 µM
[4] = second compound 0.0316 µM, first compound 1 µM
[5] = second compound 0.0316 µM, first compound 3.16 µM
[6] = second compound 0.0316 µM, first compound 10 µM
[7] = second compound 0.1 µM, first compound 0.0316 µM
[8] = second compound 0.1 µM, first compound 0.1 µM
[9] = second compound 0.1 µM, first compound 0.316 µM
[10] = second compound 0.1 µM, first compound 1 µM
[11] = second compound 0.1 µM, first compound 3.16 µM
[12] = second compound 0.1 µM, first compound 10 µM
[13] = second compound 0.316 µM, first compound 0.0316 µM
[14] = second compound 0.316 µM, first compound 0.1 µM
[15] = second compound 0.316 µM, first compound 0.316 µM
[16] = second compound 0.316 µM, first compound 1 µM
[17] = second compound 0.316 µM, first compound 3.16 µM
[18] = second compound 0.316 µM, first compound 10 µM
[19] = second compound 1 µM, first compound 0.0316 µM
[20] = second compound 1 µM, first compound 0.1 µM
[21] = second compound 1 µM, first compound 0.316 µM
[22] = second compound 1 µM, first compound 1 µM
[23] = second compound 1 µM, first compound 3.16 µM
[24] = second compound 1 µM, first compound 10 µM
[25] = second compound 3.16 µM, first compound 0.0316 µM
[26] = second compound 3.16 µM, first compound 0.1 µM
[27] = second compound 3.16 µM, first compound 0.316 µM
[28] = second compound 3.16 µM, first compound 1 µM
[29] = second compound 3.16 µM, first compound 3.16 µM
[30] = second compound 3.16 µM, first compound 10 µM
[31] = second compound 10 µM, first compound 0.0316 µM
[32] = second compound 10 µM, first compound 0.1 µM
[33] = second compound 10 µM, first compound 0.316 µM
[34] = second compound 10 µM, first compound 1 µM
[35] = second compound 10 µM, first compound 3.16 µM
[36] = second compound 10 µM, first compound 10 µM
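Further: spheroids exposed to compounds for one week.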
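Wherever viability, T/C is given: 100% = vehicle DMSO treated spheroids.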

SMILES: C#Cc1c(F)ccc2cc(O)cc(-c3ncc4c(N5CC6CCC(C5)N6)nc(OCC56CCCN5CC(F)C6)nc4c3F)c12 (stereo not drawn) + COC1C(OC(N)=O)C(O)C(Oc2ccc3c(O)c(NC(=O)c4ccc(O)c(CC=C(C)C)c4)c(=O)oc3c2C)OC1(C)C
- IC50 (second compound 0.0316 µM): > 10000 nM
- IC50 (second compound 0.1 µM): > 10000 nM
- IC50 (second compound 0.316 µM): > 10000 nM
- IC50 (second compound 1 µM): > 10000 nM
- IC50 (second compound 3.16 µM): > 10000 nM
- IC50 (second compound 10 µM): > 10000 nM
- viability, T/C [1]: 108%
- viability, T/C [2]: 92.2%
- viability, T/C [3]: 104%
- viability, T/C [4]: 104%
- viability, T/C [5]: 111%
- viability, T/C [6]: 98%
- viability, T/C [7]: 100%
- viability, T/C [8]: 104%
- viability, T/C [9]: 95.1%
- viability, T/C [10]: 99.7%
- viability, T/C [11]: 104%
- viability, T/C [12]: 98.7%
- viability, T/C [13]: 108%
- viability, T/C [14]: 98.8%
- viability, T/C [15]: 102%
- viability, T/C [16]: 107%
- viability, T/C [17]: 107%
- viability, T/C [18]: 102%
- viability, T/C [19]: 104%
- viability, T/C [20]: 97.5%
- viability, T/C [21]: 111%
- viability, T/C [22]: 109%
- viability, T/C [23]: 103%
- viability, T/C [24]: 103%
- viability, T/C [25]: 103%
- viability, T/C [26]: 95.5%
- viability, T/C [27]: 101%
- viability, T/C [28]: 105%
- viability, T/C [29]: 103%
- viability, T/C [30]: 102%
- viability, T/C [31]: 112%
- viability, T/C [32]: 102%
- viability, T/C [33]: 103%
- viability, T/C [34]: 100%
- viability, T/C [35]: 98.7%
- viability, T/C [36]: 111%

SMILES: CC1COCCN1c1cc(C2(O)CC3CCC(C2)O3)c2cnn(-c3ccn[nH]3)c2n1 (stereo not drawn) + COC1C(OC(N)=O)C(O)C(Oc2ccc3c(O)c(NC(=O)c4ccc(O)c(CC=C(C)C)c4)c(=O)oc3c2C)OC1(C)C
- IC50 (second compound 0.0316 µM): 131 nM
- IC50 (second compound 0.1 µM): 150 nM
- IC50 (second compound 0.316 µM): 87.2 nM
- IC50 (second compound 1 µM): 115 nM
- IC50 (second compound 3.16 µM): 97 nM
- IC50 (second compound 10 µM): 85.8 nM
- viability, T/C [1]: 87.1%
- viability, T/C [2]: 58.1%
- viability, T/C [3]: 24.2%
- viability, T/C [4]: 16.8%
- viability, T/C [5]: 17.9%
- viability, T/C [6]: 16.3%
- viability, T/C [7]: 92.9%
- viability, T/C [8]: 64.7%
- viability, T/C [9]: 22.7%
- viability, T/C [10]: 16.4%
- viability, T/C [11]: 13.5%
- viability, T/C [12]: 13.3%
- viability, T/C [13]: 80.2%
- viability, T/C [14]: 46.2%
- viability, T/C [15]: 22.6%
- viability, T/C [16]: 19.1%
- viability, T/C [17]: 14.7%
- viability, T/C [18]: 13.8%
- viability, T/C [19]: 92.5%
- viability, T/C [20]: 54.2%
- viability, T/C [21]: 18.6%
- viability, T/C [22]: 15.9%
- viability, T/C [23]: 17.1%
- viability, T/C [24]: 14.2%
- viability, T/C [25]: 85.3%
- viability, T/C [26]: 49%
- viability, T/C [27]: 25.4%
- viability, T/C [28]: 16.7%
- viability, T/C [29]: 15.2%
- viability, T/C [30]: 14.6%
- viability, T/C [31]: 89.6%
- viability, T/C [32]: 43.9%
- viability, T/C [33]: 21.3%
- viability, T/C [34]: 15.6%
- viability, T/C [35]: 16.1%
- viability, T/C [36]: 15.4%

SMILES: O=C(Nc1ccc(O)c(NS(=O)(=O)c2ccc(F)cc2)c1)c1ccc(-c2ccccc2)cc1 + COC1C(OC(N)=O)C(O)C(Oc2ccc3c(O)c(NC(=O)c4ccc(O)c(CC=C(C)C)c4)c(=O)oc3c2C)OC1(C)C
- IC50 (second compound 0.0316 µM): 7220 nM
- IC50 (second compound 0.1 µM): 7580 nM
- IC50 (second compound 0.316 µM): 8780 nM
- IC50 (second compound 1 µM): 7480 nM
- IC50 (second compound 3.16 µM): 8180 nM
- IC50 (second compound 10 µM): 6870 nM
- viability, T/C [1]: 112%
- viability, T/C [2]: 100%
- viability, T/C [3]: 102%
- viability, T/C [4]: 101%
- viability, T/C [5]: 85.9%
- viability, T/C [6]: 35.6%
- viability, T/C [7]: 104%
- viability, T/C [8]: 106%
- viability, T/C [9]: 99.2%
- viability, T/C [10]: 101%
- viability, T/C [11]: 101%
- viability, T/C [12]: 33.8%
- viability, T/C [13]: 111%
- viability, T/C [14]: 99.9%
- viability, T/C [15]: 104%
- viability, T/C [16]: 106%
- viability, T/C [17]: 97.9%
- viability, T/C [18]: 43.8%
- viability, T/C [19]: 108%
- viability, T/C [20]: 109%
- viability, T/C [21]: 110%
- viability, T/C [22]: 101%
- viability, T/C [23]: 92.1%
- viability, T/C [24]: 35.8%
- viability, T/C [25]: 109%
- viability, T/C [26]: 101%
- viability, T/C [27]: 108%
- viability, T/C [28]: 103%
- viability, T/C [29]: 84.9%
- viability, T/C [30]: 42.7%
- viability, T/C [31]: 103%
- viability, T/C [32]: 108%
- viability, T/C [33]: 102%
- viability, T/C [34]: 100%
- viability, T/C [35]: 81.7%
- viability, T/C [36]: 34.6%

SMILES: COc1cccc2c1C(=O)c1c(O)c3c(c(O)c1C2=O)CC(O)(C(=O)CO)CC3OC1CC(N)C(O)C(C)O1 (stereo not drawn) + Cc1cccc(N(C)C(=O)C2C(O)CCN2c2nc(C)cc(C(F)(F)F)c2C#N)c1
- IC50 (second compound 0.0316 µM): 142 nM
- IC50 (second compound 0.1 µM): 123 nM
- IC50 (second compound 0.316 µM): 115 nM
- IC50 (second compound 1 µM): 83.6 nM
- IC50 (second compound 3.16 µM): 83.7 nM
- IC50 (second compound 10 µM): 79.5 nM
- viability, T/C [1]: 73.8%
- viability, T/C [2]: 68.2%
- viability, T/C [3]: 8.09%
- viability, T/C [4]: 0.74%
- viability, T/C [5]: 1.88%
- viability, T/C [6]: 3.67%
- viability, T/C [7]: 77.1%
- viability, T/C [8]: 59.3%
- viability, T/C [9]: 7.54%
- viability, T/C [10]: 0.78%
- viability, T/C [11]: 3.07%
- viability, T/C [12]: 5.78%
- viability, T/C [13]: 89.2%
- viability, T/C [14]: 55.7%
- viability, T/C [15]: 9.71%
- viability, T/C [16]: 0.66%
- viability, T/C [17]: 2.56%
- viability, T/C [18]: 5.49%
- viability, T/C [19]: 102%
- viability, T/C [20]: 40.4%
- viability, T/C [21]: 7.53%
- viability, T/C [22]: 0.6%
- viability, T/C [23]: 2.63%
- viability, T/C [24]: 4.09%
- viability, T/C [25]: 99.3%
- viability, T/C [26]: 41%
- viability, T/C [27]: 6.13%
- viability, T/C [28]: 0.63%
- viability, T/C [29]: 3.14%
- viability, T/C [30]: 4.04%
- viability, T/C [31]: 94%
- viability, T/C [32]: 39%
- viability, T/C [33]: 5.5%
- viability, T/C [34]: 1.83%
- viability, T/C [35]: 3.46%
- viability, T/C [36]: 3.24%
